Molecular target: tau (Homo sapiens, UniProt P10636)
Experiment: MCE Phenols Library screening, tau biosensor cell seeding assay (AvZ)
Assay type: cell-based
Conditions: for Z repl 1 / Z Repl 2: Z score; for Z repl 1 / raw data 1: replicate 1; for Z Repl 2 / raw data 2: replicate 2; for AvZ (average z score of seeding, SDs from the mean level of seeding): 10 μM phenol in cell cultures, AD brain homogenate preincubated 16 hours, two biological replicates, positive = catalyzes seeding, negative = inhibits
[1] = average Z score of the two replicates, tau seeding
[2] = average Z score of the two replicates, MCE Phenols Library screen
[3] = average Z score of the two replicates, tau biosensor seeding, MCE Phenols Library screen
[4] = average puncta of the two replicates
[5] = average Z score of two replicates, Phenols Library screen

Chain of tau (P10636 623-695 limits assumed): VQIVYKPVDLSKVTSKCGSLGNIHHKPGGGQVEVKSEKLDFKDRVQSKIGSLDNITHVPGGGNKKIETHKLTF

| Compound | Z repl 1 | Z Repl 2 | av Z [1] | av puncta (average of raw data 1 and 2) | raw data 1 (puncta) | raw data 2 (puncta) | AvZ (average z score of seeding, SDs from the mean level of seeding) | av Z [2] | av Z [3] | av puncta [4] | raw data 1 (raw puncta) | raw data 2 (raw puncta) | av Z [5] | AvZ (average z score of seeding, SDs from the mean level of seeding) (listed as sinapine) |
| --- | --- | --- | --- | --- | --- | --- | --- | --- | --- | --- | --- | --- | --- | --- |
| CC(=O)OC(C)(C)CC(=O)O[C@H](CC=C(C)C)C1=CC(=O)c2c(O)ccc(O)c2C1=O [Beta-Acetoxyisovalerylshikonin] | -0.24 | 0.548 | 0.154 | 21041.3 | 23464.1 | 18618.6 |  |  |  |  |  |  |  |  |
| OCCc1ccc(O)cc1 [Tyrosol] | -0.193 | 0.294 |  | 19965.6 | 24027 | 15904.1 | 0.05 |  |  |  |  |  |  |  |
| CC(C)=CC[C@H](OC(=O)C=C(C)C)C1=CC(=O)c2c(O)ccc(O)c2C1=O [?,?-Dimethylacrylalkannin] | 0.881 | 0.516 | 0.698 | 27599.4 | 36919.9 | 18278.8 |  |  |  |  |  |  |  |  |
| O=C(/C=C/c1ccc(O)c2oc(-c3ccc(O)c(O)c3)cc12)O[C@H](Cc1ccc(O)c(O)c1)C(=O)O [Salvianolic acid C] | -1.645 | -1.179 |  | 3386.53 | 6602.17 | 170.893 |  | -1.412 |  |  |  |  |  |  |
| COc1cc2c(cc1O)CC[C@@H]1[C@@H]2CC[C@]2(C)[C@@H](O)CC[C@@H]12 [2-Methoxyestradiol] | 1.646 | 0.7 |  | 33178.1 | 46109.4 | 20246.7 |  |  | 1.173 |  |  |  |  |  |
| O=c1cc(-c2ccccc2)oc2cc(O[C@@H]3O[C@H](CO[C@@H]4O[C@H](CO)[C@@H](O)[C@H](O)[C@H]4O)[C@@H](O)[C@H](O)[C@H]3O)c(O)c(O)c12 [Oroxin B] | -0.164 | -0.982 |  |  | 24381.7 | 2282.35 |  | -0.573 |  | 13332 |  |  |  |  |
| O=C([O-])C(O)Cc1ccc(O)c(O)c1.[Na+] (stereo not drawn) [Danshensu (sodium salt)] | -0.172 | -0.817 |  |  | 24282 | 4039.49 | -0.495 |  |  | 14160.8 |  |  |  |  |
| Alpinetin | -0.059 | -0.789 |  |  |  |  |  | -0.424 |  | 14986.7 | 25635 | 4338.39 |  |  |
| COc1cc(/C=C/CO)ccc1O [Coniferyl alcohol] | 0.738 | 0.319 |  | 25693.5 | 35213 | 16173.9 | 0.529 |  |  |  |  |  |  |  |
| O=c1c(O)cc([C@H]2Oc3cc(O)cc(O)c3C[C@H]2O)cc2c([C@H]3Oc4cc(O)cc(O)c4C[C@H]3O)cc(O)c(O)c12 [Theaflavin] | -0.67 |  |  | 9279.59 | 18310.3 | 248.899 |  | -0.921 |  |  |  |  |  |  |
| O=c1c(O[C@@H]2O[C@@H](CO)[C@H](O)[C@H]2O)c(-c2ccc(O)c(O)c2)oc2cc(O)cc(O)c12 [Avicularin] | 1.115 | 1.158 |  | 32432 | 39734.3 | 25129.7 |  |  | 1.136 |  |  |  |  |  |
| COc1cc(/C=C/C(=O)[O-])ccc1O.[Na+] [Ferulic acid (sodium)] | -1.081 | -0.257 |  |  | 13369.9 | 10022.5 | -0.669 |  |  | 11696.2 |  |  |  |  |
| COc1cc(CCC(O)CC(O)CCc2ccc(O)c(OC)c2)ccc1O (stereo not drawn) [Octahydrocurcumin] | -0.643 | 0.033 |  |  |  |  |  | -0.305 |  | 15871.9 | 18628.3 | 13115.6 |  |  |
| COc1cc(O)c2c(=O)cc(-c3ccc(O)cc3)oc2c1 [Genkwanin] | 1.231 | 0.655 |  | 30446.8 | 41129.3 | 19764.4 |  |  | 0.943 |  |  |  |  |  |
| COc1ccc(-c2cc(=O)c3c(O)c(OC)c(O)c(OC)c3o2)cc1 [Nevadensin] | -0.55 | -0.108 |  |  |  |  |  | -0.329 |  | 15677.7 | 19746.6 | 11608.9 |  |  |
| COc1cc2c(cc1O)CC[n+]1cc3c4c(ccc3cc1-2)OCO4 [Groenlandicine] | 0.553 | -0.208 | 0.172 | 21762.9 | 32984.4 | 10541.3 |  |  |  |  |  |  |  |  |
| O=C(O[C@@H]1Cc2c(O)cc(O)cc2O[C@H]1c1cc(O)c(O)c(O)c1)c1cc(O)c(O)c(O)c1 [(-)-Gallocatechin gallate] |  | -1.187 |  | 257.55 | 427.718 | 87.382 |  |  |  |  |  |  |  |  |

| Compound | Z repl 1 | Z Repl 2 | av Z [1] | av puncta (average of raw data 1 and 2) | raw data 1 (puncta) | raw data 2 (puncta) | AvZ (average z score of seeding, SDs from the mean level of seeding) | av Z [2] | av Z [3] | av puncta [4] | raw data 1 (raw puncta) | raw data 2 (raw puncta) | av Z [5] | AvZ (average z score of seeding, SDs from the mean level of seeding) (listed as sinapine) |
| --- | --- | --- | --- | --- | --- | --- | --- | --- | --- | --- | --- | --- | --- | --- |
| COc1cc(C(=O)O)cc(OC)c1O [Syringic acid] | 0.138 | 0.027 |  | 20525.8 | 28000.6 | 13051.1 | 0.082 |  |  |  |  |  |  |  |
| Oc1cc(O)c2c(c1)O[C@H](c1ccc(O)c(O)c1)[C@@H](O)[C@H]2O [Leucocyanidin] | -0.147 | -0.356 |  |  |  |  |  | -0.251 |  | 16774.6 | 24584.1 | 8965.07 |  |  |
| COc1c(O)cc2oc(-c3ccccc3)cc(=O)c2c1O [Oroxylin A] | -0.11 | -0.323 |  |  |  |  |  | -0.217 |  | 17171.6 | 25029.5 | 9313.67 |  |  |
| C[C@@H]1O[C@@H](Oc2cc(O)c3c(=O)c(O)c(-c4ccc(O)cc4)oc3c2O)[C@H](O)[C@H](O)[C@H]1O [Rhodionin] |  | -1.086 |  | 6714.99 | 12258.1 | 1171.9 |  | -1.13 |  |  |  |  |  |  |
| Liquiritin apioside | 0.133 | -0.022 |  | 20239.1 | 27949.8 | 12528.3 |  |  |  |  |  |  | 0.056 |  |
| CC(Cc1ccc(O)c(O)c1)C(C)Cc1ccc(O)c(O)c1 (stereo not drawn) [Nordihydroguaiaretic acid] | -0.326 | 0.012 |  | 17666.9 | 22434.9 | 12898.9 |  |  |  |  |  |  | -0.157 |  |
| COc1ccc(-c2oc3c(CC=C(C)C)c(O[C@@H]4O[C@H](CO)[C@@H](O)[C@H](O)[C@H]4O)cc(O)c3c(=O)c2O[C@@H]2O[C@@H](C)[C@H](O)[C@@H](O)[C@H]2O[C@@H]2O[C@H](CO)[C@@H](O)[C@H](O)[C@H]2O)cc1 [Epimedin A] | -1.302 | -0.744 |  | 7768.23 | 10713.2 | 4823.23 |  | -1.023 |  |  |  |  |  |  |
| COc1ccc(-c2oc3c(CCC(C)(C)O)c(O)cc(O)c3c(=O)c2O)cc1 [Wushanicaritin] | -0.889 | -0.335 |  |  | 15671.6 | 9188.09 |  | -0.612 |  | 12429.8 |  |  |  |  |
| COc1ccc(C[C@@H]2c3cc(Oc4cc(C[C@@H]5c6cc(O)c(OC)cc6CCN5C)ccc4O)c(OC)cc3CCN2C)cc1 [Isoliensinine] | 0.107 | 0.423 | 0.265 | 22459.5 | 27639.6 | 17279.4 |  |  |  |  |  |  |  |  |
| C[C@@H]1O[C@@H](O[C@H]2[C@H](Oc3cc(O)c4c(=O)cc(-c5ccc(O)cc5)oc4c3)O[C@H](CO)[C@@H](O)[C@@H]2O)[C@H](O)[C@H](O)[C@H]1O [Rhoifolin] | 0.9 | -0.094 | 0.403 | 24460.4 | 37158.3 | 11762.4 |  |  |  |  |  |  |  |  |
| COc1ccc(-c2cc(=O)c3c(O)cc(OC)cc3o2)cc1 [7,4'-Di-O-methylapigenin] | 0.072 | -0.073 |  | 19598.9 | 27207.6 | 11990.2 |  |  |  |  |  |  | -0.001 |  |
| COc1cc(/C=C/C(=O)OCC[N+](C)(C)C)cc(OC)c1O [Sinapine] | -0.962 | -0.305 |  |  | 14803.5 | 9509.32 | -0.633 |  |  | 12156.4 |  |  |  | −0.633 |
| C=C(C)[C@H](CC=C(C)C)Cc1c(O)cc(O)c2c1O[C@H](c1ccc(O)cc1O)CC2=O [Sophoraflavanone G] | -0.704 | -0.412 |  |  | 17897.8 | 8362.49 |  | -0.558 |  | 13130.1 |  |  |  |  |
| COc1ccc(-c2oc3cc(O)cc(O)c3c(=O)c2O)cc1 [Kaempferide] | -0.102 | -1.05 |  |  | 25119.1 | 1554.77 |  | -0.576 |  | 13337 |  |  |  |  |
| COC(=O)/C=C/c1ccc(O)c(O)c1 [Methyl caffeate] | -0.415 | -0.284 |  |  |  |  | -0.349 |  |  | 15550.1 | 21362.3 | 9737.92 |  |  |
| O=C(CCCCCCCCc1ccc(O)c(O)c1)c1c(O)cccc1O [Malabaricone C] | -0.224 | 0.189 |  | 19220 | 23659 | 14781.1 |  |  |  |  |  |  | -0.018 |  |
